Data published in the NIST ThermoML archive (doi:10.1021/je800110r).
Numbers after ± are expanded uncertainties.

Details: Liquid, Vibrating tube method

CCCCCCCCCC [decane]
Details	mass density [kg/m3]
303.15 K, 32305 kPa	745.4 ± 2.1
303.15 K, 32325 kPa	745.3 ± 2.1
303.15 K, 32357 kPa	745.5 ± 2.1
303.15 K, 32384 kPa	745.5 ± 2.1
303.15 K, 32413 kPa	745.5 ± 2.1
303.15 K, 32436 kPa	745.5 ± 2.1
303.15 K, 32459 kPa	745.5 ± 2.1
303.15 K, 32482 kPa	745.5 ± 2.1
303.15 K, 32502 kPa	745.6 ± 2.1
303.15 K, 32522 kPa	745.4 ± 2.1
303.15 K, 32543 kPa	745.6 ± 2.1
303.15 K, 32563 kPa	745.6 ± 2.1
303.15 K, 32588 kPa	745.6 ± 2.1
303.15 K, 32611 kPa	745.7 ± 2.1
303.15 K, 32637 kPa	745.6 ± 2.1
303.15 K, 32667 kPa	745.7 ± 2.1
303.15 K, 32691 kPa	745.7 ± 2.1
303.15 K, 32718 kPa	745.7 ± 2.1
303.15 K, 32741 kPa	745.7 ± 2.1
303.15 K, 32758 kPa	745.8 ± 2.1
303.15 K, 32788 kPa	745.8 ± 2.1
303.15 K, 32812 kPa	745.8 ± 2.1
303.15 K, 32840 kPa	745.9 ± 2.1
303.15 K, 32864 kPa	745.9 ± 2.1
303.15 K, 32892 kPa	745.8 ± 2.1
303.15 K, 32923 kPa	745.8 ± 2.1
303.15 K, 32943 kPa	745.9 ± 2.1
303.15 K, 32971 kPa	745.9 ± 2.1
303.15 K, 32989 kPa	745.9 ± 2.1
303.15 K, 33010 kPa	745.9 ± 2.1
303.15 K, 33031 kPa	746 ± 2.1
303.15 K, 33062 kPa	746 ± 2.1
303.15 K, 33093 kPa	746 ± 2.1
303.15 K, 33114 kPa	746 ± 2.1
303.15 K, 33138 kPa	746.1 ± 2.1
303.15 K, 33163 kPa	746 ± 2.1
303.15 K, 33184 kPa	746 ± 2.1
303.15 K, 33212 kPa	746.1 ± 2.1
303.15 K, 33230 kPa	746.1 ± 2.1
303.15 K, 33258 kPa	746.1 ± 2.1
303.15 K, 33286 kPa	746 ± 2.1
303.15 K, 33314 kPa	746.1 ± 2.1
303.15 K, 33339 kPa	746.1 ± 2.1
303.15 K, 33364 kPa	746 ± 2.1
303.15 K, 33389 kPa	746.1 ± 2.1
303.15 K, 33424 kPa	746.1 ± 2.1
303.15 K, 33458 kPa	746.1 ± 2.1
303.15 K, 33487 kPa	746.2 ± 2.1
303.15 K, 33512 kPa	746.2 ± 2.1
303.15 K, 33545 kPa	746.2 ± 2.1
303.15 K, 33566 kPa	746.3 ± 2.1
303.15 K, 33588 kPa	746.3 ± 2.1
303.15 K, 33621 kPa	746.3 ± 2.1
303.15 K, 33642 kPa	746.3 ± 2.1
303.15 K, 33676 kPa	746.4 ± 2.1
303.15 K, 33697 kPa	746.3 ± 2.1
303.15 K, 33719 kPa	746.4 ± 2.1
303.15 K, 33741 kPa	746.4 ± 2.1
303.15 K, 33764 kPa	746.3 ± 2.1
303.15 K, 33790 kPa	746.4 ± 2.1
303.15 K, 33816 kPa	746.4 ± 2.1
303.15 K, 33848 kPa	746.4 ± 2.1
303.15 K, 33871 kPa	746.4 ± 2.1
303.15 K, 33904 kPa	746.4 ± 2.1
303.15 K, 33923 kPa	746.4 ± 2.1
303.15 K, 33961 kPa	746.4 ± 2.1
303.15 K, 33984 kPa	746.6 ± 2.1
303.15 K, 34018 kPa	746.6 ± 2.1
303.15 K, 34044 kPa	746.5 ± 2.1
303.15 K, 34068 kPa	746.5 ± 2.1
303.15 K, 34100 kPa	746.6 ± 2.1
303.15 K, 34124 kPa	746.5 ± 2.1
303.15 K, 34151 kPa	746.6 ± 2.1
303.15 K, 34180 kPa	746.5 ± 2.1
303.15 K, 34218 kPa	746.6 ± 2.1
303.15 K, 34247 kPa	746.6 ± 2.1
303.15 K, 34265 kPa	746.8 ± 2.1
303.15 K, 34284 kPa	746.8 ± 2.1
303.15 K, 34306 kPa	746.8 ± 2.1
303.15 K, 34332 kPa	746.7 ± 2.1
303.15 K, 34354 kPa	746.7 ± 2.1
303.15 K, 34372 kPa	746.8 ± 2.1
303.15 K, 34395 kPa	746.7 ± 2.1
303.15 K, 34422 kPa	746.8 ± 2.1
303.15 K, 34443 kPa	746.9 ± 2.1
303.15 K, 34449 kPa	746.8 ± 2.1
303.16 K, 4203 kPa	725.7 ± 2
303.16 K, 4220 kPa	725.6 ± 2
303.16 K, 4238 kPa	725.7 ± 2
303.16 K, 4251 kPa	725.8 ± 2
303.16 K, 4264 kPa	725.7 ± 2
303.16 K, 4275 kPa	725.6 ± 2
303.16 K, 4290 kPa	725.8 ± 2
303.16 K, 4305 kPa	725.8 ± 2
303.16 K, 4325 kPa	725.8 ± 2
303.16 K, 4341 kPa	725.8 ± 2
303.16 K, 4354 kPa	725.8 ± 2
303.16 K, 4367 kPa	725.9 ± 2
303.16 K, 4380 kPa	725.8 ± 2
303.16 K, 4395 kPa	725.9 ± 2
303.16 K, 4407 kPa	725.9 ± 2
303.16 K, 4422 kPa	725.8 ± 2
303.16 K, 4433 kPa	725.9 ± 2
303.16 K, 4451 kPa	725.9 ± 2
303.16 K, 4466 kPa	725.8 ± 2
303.16 K, 4480 kPa	725.9 ± 2
303.16 K, 4496 kPa	726 ± 2
303.16 K, 4508 kPa	726 ± 2
303.16 K, 4521 kPa	725.9 ± 2
303.16 K, 4534 kPa	725.9 ± 2
303.16 K, 4547 kPa	726 ± 2
303.16 K, 4563 kPa	726 ± 2
303.16 K, 4577 kPa	726.1 ± 2
303.16 K, 4593 kPa	726 ± 2
303.16 K, 4606 kPa	726 ± 2
303.16 K, 4625 kPa	726 ± 2
303.16 K, 4643 kPa	726 ± 2
303.16 K, 4656 kPa	726.1 ± 2
303.16 K, 4675 kPa	726.1 ± 2
303.16 K, 4693 kPa	726.1 ± 2
303.16 K, 4708 kPa	726.1 ± 2
303.16 K, 4723 kPa	726.1 ± 2
303.16 K, 4736 kPa	726.2 ± 2
303.16 K, 4754 kPa	726.1 ± 2
303.16 K, 4774 kPa	726.2 ± 2
303.16 K, 4788 kPa	726.2 ± 2
303.16 K, 4802 kPa	726.1 ± 2
303.16 K, 4819 kPa	726.2 ± 2
303.16 K, 4835 kPa	726.2 ± 2
303.16 K, 4846 kPa	726.2 ± 2
303.16 K, 4858 kPa	726.3 ± 2
303.16 K, 4870 kPa	726.2 ± 2
303.16 K, 4881 kPa	726.1 ± 2
303.16 K, 4893 kPa	726.1 ± 2
303.16 K, 4904 kPa	726.2 ± 2
303.16 K, 4918 kPa	726.3 ± 2
303.16 K, 4931 kPa	726.3 ± 2
